Assay results published in patent publication US20060004004A1, “Novel gamma secretase inhibitors” (Schering Corporation, priority 2004, published 2006).
Several values for one entry are separate records, joined by “and”; a condition that tells them apart may be missing. Identical values can stand only once. Like-named read-outs stand apart in the source and are kept apart here.

Target: T1, γ-secretase (Homo sapiens, UniProt P49768)
T1 construct: endogenous in cells; host or cells: membranes of 293 cells (T-REx, clone pTRE.15) with tetracycline-induced SPC99-Lon
Test: Gamma secretase activity, membrane assay with Aβ 40 / Aβ 42 ECL immunoassay (Zhang et al.)
Type: biochemical
Source text: Antibodies W02, G2-10, and G2-11 were obtained from Dr. Konrad Beyreuther (University of Heidelberg, Heidelberg, Germany). W02 recognizes residues 5-8 of Aβ peptide, while G2-10 and G2-11 recognize the specific C-terminal structure of Aβ 40 and Aβ 42, respectively. Biotin-4G8 was purchased from Senetec (St. Louis, Mo.). All tissue culture reagents used in this work were from Life Technologies, Inc., unless otherwise specified. Pepstatin A was purchased from Roche Molecular Biochemicals; DFK167 was from Enzyme Systems Products (Livermore, Calif.).
Upon insertion into the membrane, the 17 amino acid signal peptide is processed, leaving an additional leucine at the N-terminus of Aβ. SPC99-lon was cloned into the pcDNA4/TO vector (Invitrogen) and transfected into 293 cells stably transfected with pcDNA6/TR, which is provided in the T-REX system (Invitrogen). The transfected cells were selected in Dulbecco's modified Eagle's media (DMEM) supplemented with 10% fetal bovine serum, 100 units/mL penicillin, 100 µg/mL streptomycin, 250 µg/mL zeocin, and 5 µg/mL blasticidin (Invitrogen). Colonies were screened for Aβ production by inducing C99 expression with […] tetracycline for 16-20 h and analyzing conditioned media with a sandwich immunoassay (see below). One of the clones, designated as pTRE.15, was used in these studies.
C99 expression in cells was induced with […] tetracycline for 20 h. The cells were pretreated with […] 12-myristate 13-acetate (PMA) and […] brefeldin A (BFA) for 5-6 h at 37° C. before harvesting. The cells were washed 3 times with cold phosphate-buffered saline (PBS) and harvested in buffer A containing 20 mM Hepes (pH 7.5), 250 mM sucrose, 50 mM KCl, 2 mM EDTA, 2 mM EGTA, and Complete protease inhibitor tablets (Roche Molecular Biochemicals). The cell pellets were flash-frozen in liquid nitrogen and stored at −70° C. before use.
To make membranes, the cells were resuspended in buffer A and lysed in a nitrogen bomb at 600 psi. The cell lysate was centrifuged at 1500 g for 10 min to remove nuclei and large cell debris. The supernatant was centrifuged at 100000 g for 1 h. The membrane pellet was resuspended in buffer A plus 0.5 M NaCl, and the membranes were collected by centrifugation at 200000 g for 1 h. The salt-washed membrane pellet was washed again in buffer A and centrifuged at 100000 g for 1 h. The final membrane pellet was resuspended in a small volume of buffer A using a Teflon-glass homogenizer. The protein concentration was determined, and membrane aliquots were flash-frozen in liquid nitrogen and stored at −70° C.
γ-Secretase Reaction and Aβ Analysis To measure γ-secretase activity, membranes were incubated at 37° C. for 1 h in […] of buffer containing 20 mM Hepes (pH 7.0) and 2 mM EDTA. At the end of the incubation, Aβ 40 and Aβ 42 were measured using an electrochemiluminescence (ECL)-based immunoassay. Aβ 40 was identified with antibody pairs TAG-G2-10 and biotin-W02, while Aβ 42 was identified with TAG-G2-11 and biotin-4G8. The ECL signal was measured using an ECL-M8 instrument (IGEN International, Inc.) according to the manufacturer's instructions. The data presented were the means of the duplicate or triplicate measurements in each experiment.

[1] = membranes of 293 cells expressing SPC99-Lon (clone pTRE.15), 37° C., 1 h, read-out: IC50 (μM), γ-secretase inhibitory activity
[2] = same membrane assay, ranges given as 'about', read-out: IC50 values within the range

IC50 [1] | IC50 [2] | SMILES
0.0028 µM | 0.001 to 0.2 µM and 0.001 to 0.02 µM | O=C(CC1([C@@H]2CCC[C@H](c3cc(F)cc(F)c3)N2S(=O)(=O)c2ccc(Cl)cc2)CC1)N1CCN(CCO)CC1 [Example 1]
0.0164 µM | 0.001 to 0.2 µM and 0.001 to 0.02 µM | O=C(CC1(C2CCCC(c3cc(F)cc(F)c3)N2S(=O)(=O)c2ccc(Cl)cc2)CC1)N1CCCCC1 (centres unmarked) [Example 2]
0.0132 µM | 0.001 to 0.2 µM and 0.001 to 0.02 µM | O=C(CC1(C2CCCC(c3cc(F)cc(F)c3)N2S(=O)(=O)c2ccc(Cl)cc2)CC1)N1CC[C@H](O)C1 (some centres unmarked) [Example 3]
0.0014 µM | 0.001 to 0.2 µM and 0.001 to 0.02 µM | O=C(CC1(C2CCCC(c3cc(F)cc(F)c3)N2S(=O)(=O)c2ccc(Cl)cc2)CC1)N1CCC(N2CCCCC2)CC1 (centres unmarked) [Example 4]
0.0196 µM | 0.001 to 0.2 µM and 0.001 to 0.02 µM | O=C(CC1([C@H]2CCC[C@@H](c3cc(F)cc(F)c3)N2S(=O)(=O)c2ccc(Cl)cc2)CC1)N1CCC[C@H]1CO [Example 5]
– | 0.001 to 0.2 µM | O=C(CC1([C@H]2CCC[C@@H](c3cc(F)cc(F)c3)N2S(=O)(=O)c2ccc(Cl)cc2)CC1)N1CCCC1 [Example 6]
– | 0.001 to 0.2 µM | O=C(N1CCC[C@H]1CO)C1([C@H]2CCC[C@@H](c3cc(F)cc(F)c3)N2S(=O)(=O)c2ccc(Cl)cc2)CC1 [Example 7]
– | 0.001 to 0.2 µM | O=C(N1CCCC1)C1([C@H]2CCC[C@@H](c3cc(F)cc(F)c3)N2S(=O)(=O)c2ccc(Cl)cc2)CC1 [Example 8]
– | 0.001 to 0.2 µM | O=C(N1CCC(N2CCCCC2)CC1)C1([C@H]2CCC[C@@H](c3cc(F)cc(F)c3)N2S(=O)(=O)c2ccc(Cl)cc2)CC1 [Example 9]
– | 0.001 to 0.2 µM | O=C(N1CCN(CCO)CC1)C1([C@H]2CCC[C@@H](c3cc(F)cc(F)c3)N2S(=O)(=O)c2ccc(Cl)cc2)CC1 [Example 10]
– | 0.001 to 0.2 µM | C[C@@H]1CN(CCO)CCN1C(=O)C1([C@H]2CCC[C@@H](c3cc(F)cc(F)c3)N2S(=O)(=O)c2ccc(Cl)cc2)CC1 [Example 11]
– | 0.001 to 0.2 µM | O=C(N1C[C@@H](N2CCCCC2)C[C@@H]1CO)C1([C@H]2CCC[C@@H](c3cc(F)cc(F)c3)N2S(=O)(=O)c2ccc(Cl)cc2)CC1 [Example 17]
0.0119 µM | 0.001 to 0.2 µM and 0.001 to 0.02 µM | O=S(=O)(CC1([C@@H]2CCC[C@H](c3cc(F)cc(F)c3)N2S(=O)(=O)c2ccc(Cl)cc2)CC1)N1CCC(N2CCCCC2)CC1 [Example 19]
0.0151 µM | 0.001 to 0.2 µM and 0.001 to 0.02 µM | O=S(=O)(CC1([C@H]2CCC[C@@H](c3cc(F)cc(F)c3)N2S(=O)(=O)c2ccc(Cl)cc2)CC1)N1CC[C@H](O)C1 [Example 20]
0.0117 µM | 0.001 to 0.2 µM and 0.001 to 0.02 µM | CN1CCN(S(=O)(=O)CC2([C@H]3CCC[C@@H](c4cc(F)cc(F)c4)N3S(=O)(=O)c3ccc(Cl)cc3)CC2)CC1 [Example 21]
0.0164 µM | 0.001 to 0.2 µM and 0.001 to 0.02 µM | O=S(=O)(CC1([C@H]2CCC[C@@H](c3cc(F)cc(F)c3)N2S(=O)(=O)c2ccc(Cl)cc2)CC1)N1CCC[C@H]1CO [Example 22]
0.0124 µM | 0.001 to 0.2 µM and 0.001 to 0.02 µM | O=S(=O)(CC1([C@H]2CCC[C@@H](c3cc(F)cc(F)c3)N2S(=O)(=O)c2ccc(Cl)cc2)CC1)N1CCN(CCO)CC1 [Example 23]
0.0145 µM | 0.001 to 0.2 µM and 0.001 to 0.02 µM | O=S(=O)(CC1([C@H]2CCC[C@@H](c3cc(F)cc(F)c3)N2S(=O)(=O)c2ccc(Cl)cc2)CC1)N1CCC(N2CCOCC2)CC1 [Example 24]
0.0049 µM | 0.001 to 0.2 µM and 0.001 to 0.02 µM | O=C(C(O)C1([C@H]2CCC[C@@H](c3cc(F)cc(F)c3)N2S(=O)(=O)c2ccc(Cl)cc2)CC1)N1CCC(N2CCCCC2)CC1 (some centres unmarked) [Example 25]
– | 0.001 to 0.2 µM | O=C(C(O)C1([C@H]2CCC[C@@H](c3cc(F)cc(F)c3)N2S(=O)(=O)c2ccc(Cl)cc2)CC1)N1CCC[C@H]1CO (some centres unmarked) [Example 26]
– | 0.001 to 0.2 µM | O=C(C(O)C1([C@H]2CCC[C@@H](c3cc(F)cc(F)c3)N2S(=O)(=O)c2ccc(Cl)cc2)CC1)N1CC[C@H](O)C1 (some centres unmarked) [Example 27]
0.0068 µM | 0.001 to 0.2 µM and 0.001 to 0.02 µM | CCC1(O)CC2CCC(C1)N2C(=O)C(O)C1([C@H]2CCC[C@@H](c3cc(F)cc(F)c3)N2S(=O)(=O)c2ccc(Cl)cc2)CC1 (some centres unmarked) [Example 29]
– | 0.001 to 0.2 µM | O=C(CC1([C@H]2CCC[C@@H](C3CC3)N2S(=O)(=O)c2ccc(Cl)cc2)CC1)N1CCN2CCCC2C1 (some centres unmarked) [Example 44]
– | 0.001 to 0.02 µM and 0.001 to 0.2 µM | O=C(CC1([C@H]2C[C@@H](O)C[C@@H](C3CC3)N2S(=O)(=O)c2ccc(Cl)cc2)CC1)N1CCC(N2CCCCC2)CC1 [Example 46]
– | 0.001 to 0.2 µM | O=C(CC1([C@H]2C[C@@H](O)C[C@@H](C3CC3)N2S(=O)(=O)c2ccc(Cl)cc2)CC1)N1CC[C@@H](O)C1 [Example 47]
0.0048 µM | 0.001 to 0.02 µM and 0.001 to 0.2 µM | CCC1(O)CC2CCC(C1)N2C(=O)CC1([C@H]2C[C@@H](O)C[C@@H](C3CC3)N2S(=O)(=O)c2ccc(Cl)cc2)CC1 (some centres unmarked) [Example 48]

SMILES | IC50 [1] | IC50 [2]
CCC1(OC)CC2CCC(C1)N2C(=O)C(O)C1([C@H]2CCC[C@@H](c3cc(F)cc(F)c3)N2S(=O)(=O)c2ccc(Cl)cc2)CC1 (some centres unmarked) [Example 28] | – | 0.001 to 0.2 µM and 0.001 to 0.02 µM
